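Cells were grown in 96-well plates and exposed to each compound for 48 hours at five concentrations; endpoints were interpolated linearly between bracketing concentrations, or set to the highest concentration if not reached. Abbreviation: GI50, concentration required for 50% inhibition of growth.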 The source made the active and inactive calls. Cut-off read from the data, not from the text of the source: active = GI50 up to about 1.1 µM and inactive = higher.
How the values were obtained:
Assay in all cases: inhibition of tumour cell growth, NCI panel, 48 h
RPMI-8226 = system: RPMI-8226
SR = system: SR
UO-31 = system: UO-31
UACC-62 = system: UACC-62
CAKI-1 = system: CAKI-1
DU-145 = system: DU-145
NCI-H522 = system: NCI-H522
NCI-H460 = system: NCI-H460
RXF 393 = system: RXF 393
SF-539 = system: SF-539
MDA-MB-231 = system: MDA-MB-231
NCI/ADR-RES = system: NCI/ADR-RES
OVCAR-8 = system: OVCAR-8
IGROV-1 = system: IGROV-1
SN12C = system: SN12C
SK-MEL-5 = system: SK-MEL-5
UACC-257 = system: UACC-257
MCF7 = system: MCF7
HCT-116 = system: HCT-116
SNB-19 = system: SNB-19

Measured: GI50

COc1ccccc1N1C(=O)CSC1c1cc(OC)c(OC)c(OC)c1 (stereo unspecified)
inactive: RPMI-8226 16.6 µM | SR 10.7 µM | UO-31 > 76.7 µM | UACC-62 20.5 µM | CAKI-1 > 35 µM | DU-145 > 100 µM | NCI-H522 17.7 µM | NCI-H460 > 100 µM | RXF 393 > 52.1 µM | SF-539 15.8 µM | MDA-MB-231 > 100 µM | NCI/ADR-RES 69.8 µM | OVCAR-8 > 100 µM | IGROV-1 33 µM | SN12C > 100 µM | SK-MEL-5 25.5 µM | UACC-257 > 84.7 µM | MCF7 16.3 µM | HCT-116 13.3 µM

CCOc1ccc2nc(NC(NC(=O)c3cccnc3)(C(F)(F)F)C(F)(F)F)sc2c1
inactive: SR 24.9 µM | UO-31 6.84 µM | UACC-62 25.6 µM | CAKI-1 38.3 µM | DU-145 35.7 µM | NCI-H522 23.4 µM | NCI-H460 28.6 µM | RXF 393 21 µM | SF-539 49.2 µM | SNB-19 51.9 µM | MDA-MB-231 66.1 µM | NCI/ADR-RES 25.8 µM | OVCAR-8 26.7 µM | SN12C 25.2 µM | SK-MEL-5 20.5 µM | UACC-257 25.5 µM | MCF7 25.5 µM | HCT-116 25.4 µM

CCOC(=O)C(=O)/C(=C/NC(=S)Nc1ccc(Cl)c(Cl)c1)C(=O)OCC
inactive: RPMI-8226 17.9 µM | SR 30.5 µM | UO-31 27.5 µM | UACC-62 57.8 µM | CAKI-1 64.7 µM | DU-145 > 100 µM | NCI-H460 > 100 µM | RXF 393 37.8 µM | SF-539 25.6 µM | SNB-19 > 100 µM | MDA-MB-231 > 100 µM | NCI/ADR-RES 50.1 µM | OVCAR-8 > 100 µM | IGROV-1 85.9 µM | SN12C 88.3 µM | SK-MEL-5 27.6 µM | UACC-257 60.3 µM | MCF7 62.2 µM | HCT-116 75 µM

COc1ccc(C2Oc3c(cccc3OC)C=C2[N+](=O)[O-])cc1OC (stereo unspecified)
inactive: RPMI-8226 32.3 µM | SR 2.59 µM | UO-31 14.7 µM | UACC-62 4.16 µM | CAKI-1 13.8 µM | DU-145 11.7 µM | NCI-H522 2.97 µM | NCI-H460 21.5 µM | RXF 393 2.57 µM | SNB-19 17.3 µM | MDA-MB-231 9.91 µM | NCI/ADR-RES 3.87 µM | OVCAR-8 8.93 µM | IGROV-1 11.9 µM | SN12C 5.55 µM | SK-MEL-5 4.14 µM | UACC-257 3.71 µM | MCF7 4.12 µM | HCT-116 4.55 µM

O=c1cnn(C2OC(C(O)CO)C(O)C2O)c(=O)[nH]1 (stereo unspecified)
inactive: RPMI-8226 > 100 µM | SR > 100 µM | UO-31 > 100 µM | UACC-62 > 100 µM | CAKI-1 > 100 µM | DU-145 > 100 µM | NCI-H522 > 100 µM | NCI-H460 > 100 µM | RXF 393 > 100 µM | SF-539 > 100 µM | SNB-19 > 100 µM | MDA-MB-231 > 100 µM | NCI/ADR-RES > 100 µM | OVCAR-8 > 100 µM | IGROV-1 > 100 µM | SN12C > 100 µM | SK-MEL-5 > 100 µM | UACC-257 > 100 µM | MCF7 > 100 µM | HCT-116 > 100 µM

Cc1ccc2c(c1)[nH]c(=S)n2C=C1C(=O)CC(C)(C)CC1=O
inactive: SR > 100 µM | UO-31 > 100 µM | UACC-62 > 100 µM | CAKI-1 > 100 µM | DU-145 > 100 µM | NCI-H522 > 100 µM | NCI-H460 > 100 µM | RXF 393 > 100 µM | SF-539 > 100 µM | SNB-19 > 100 µM | MDA-MB-231 > 100 µM | NCI/ADR-RES > 100 µM | OVCAR-8 > 100 µM | IGROV-1 15.8 µM | SN12C > 100 µM | SK-MEL-5 > 100 µM | UACC-257 > 100 µM | MCF7 > 100 µM | HCT-116 > 100 µM

O=C1/C(=C2/C(=O)N(c3ccccc3)c3ccccc32)Nc2ccccc21
inactive: RPMI-8226 > 100 µM | SR 61.2 µM | UO-31 43.7 µM | UACC-62 > 100 µM | CAKI-1 45.5 µM | DU-145 27 µM | NCI-H522 66.5 µM | NCI-H460 46.2 µM | RXF 393 15 µM | SNB-19 29.6 µM | MDA-MB-231 18.9 µM | NCI/ADR-RES > 100 µM | OVCAR-8 47.8 µM | IGROV-1 19.8 µM | SN12C 59.8 µM | SK-MEL-5 22.3 µM | UACC-257 37.4 µM | MCF7 11.9 µM | HCT-116 36.6 µM

O=C(CSCC(=O)N/N=C\c1ccc(F)cc1F)N/N=C\c1ccc(F)cc1F
inactive: RPMI-8226 > 100 µM | SR > 100 µM | UO-31 > 100 µM | UACC-62 > 100 µM | CAKI-1 > 100 µM | DU-145 > 100 µM | NCI-H522 > 100 µM | NCI-H460 > 100 µM | RXF 393 > 100 µM | SF-539 > 100 µM | SNB-19 > 100 µM | MDA-MB-231 > 100 µM | NCI/ADR-RES > 100 µM | OVCAR-8 > 100 µM | IGROV-1 > 100 µM | SN12C > 100 µM | SK-MEL-5 > 100 µM | UACC-257 > 100 µM | MCF7 > 100 µM | HCT-116 > 100 µM

O=C1C2=Cc3ccccc3CCN2c2ccc([N+](=O)[O-])cc21
inactive: RPMI-8226 > 100 µM | SR 66.8 µM | UO-31 24.2 µM | UACC-62 55.5 µM | CAKI-1 69.3 µM | DU-145 96.2 µM | NCI-H522 24 µM | NCI-H460 30.7 µM | RXF 393 > 100 µM | SF-539 82.6 µM | SNB-19 > 100 µM | MDA-MB-231 > 100 µM | NCI/ADR-RES 24 µM | OVCAR-8 35.4 µM | IGROV-1 > 100 µM | SN12C 81.5 µM | SK-MEL-5 21.9 µM | UACC-257 36.4 µM | MCF7 2.92 µM | HCT-116 > 100 µM

CC(O)C1(CNc2cc(Cl)nc(N)n2)CCC1 (stereo unspecified)
inactive: RPMI-8226 > 100 µM | SR > 100 µM | UO-31 > 100 µM | UACC-62 89.9 µM | CAKI-1 > 100 µM | DU-145 > 100 µM | NCI-H522 > 100 µM | NCI-H460 > 100 µM | RXF 393 24.2 µM | SF-539 > 100 µM | SNB-19 > 100 µM | MDA-MB-231 > 100 µM | NCI/ADR-RES > 100 µM | OVCAR-8 > 100 µM | IGROV-1 > 100 µM | SN12C > 100 µM | SK-MEL-5 70.1 µM | UACC-257 37.8 µM | MCF7 > 100 µM | HCT-116 > 100 µM

Cc1c(C#N)c2nnn(-c3ccc([N+](=O)[O-])cc3)c(=O)n2c1-c1ccccc1
inactive: RPMI-8226 3.13 µM | SR 4.62 µM | UO-31 11.2 µM | UACC-62 6.19 µM | CAKI-1 12.1 µM | DU-145 9.44 µM | NCI-H522 3.77 µM | NCI-H460 5.86 µM | RXF 393 16.5 µM | SF-539 14.6 µM | SNB-19 11.6 µM | MDA-MB-231 17.3 µM | NCI/ADR-RES 4.86 µM | OVCAR-8 10.7 µM | IGROV-1 15.3 µM | SN12C 11.5 µM | SK-MEL-5 12.6 µM | UACC-257 16.9 µM | MCF7 6.22 µM | HCT-116 6.62 µM

C=CCN1C(=O)CS/C1=N\NC(=O)CSc1nc2ccccc2c(=O)n1CC
inactive: RPMI-8226 > 100 µM | SR > 100 µM | UO-31 41.9 µM | UACC-62 92 µM | CAKI-1 75.2 µM | DU-145 > 100 µM | NCI-H522 > 100 µM | NCI-H460 5.37 µM | RXF 393 > 100 µM | SF-539 > 100 µM | SNB-19 > 100 µM | MDA-MB-231 > 100 µM | NCI/ADR-RES > 100 µM | OVCAR-8 > 100 µM | IGROV-1 > 100 µM | SN12C > 100 µM | SK-MEL-5 > 100 µM | UACC-257 > 100 µM | MCF7 > 100 µM | HCT-116 > 100 µM

CC(=O)NC1C(OCc2ccccc2)OC(CO)C(O)C1OCC(=O)NC(C)C(=O)NC(CCC(=O)Nc1ccc2c(c1)CN1C(=O)c3ccccc3C1=N2)C(N)=O (stereo unspecified)
inactive: RPMI-8226 > 100 µM | SR > 100 µM | UO-31 > 100 µM | UACC-62 > 100 µM | CAKI-1 > 100 µM | DU-145 > 100 µM | NCI-H460 > 100 µM | RXF 393 > 100 µM | SF-539 > 100 µM | SNB-19 > 100 µM | MDA-MB-231 > 100 µM | NCI/ADR-RES > 100 µM | OVCAR-8 > 100 µM | IGROV-1 > 100 µM | SN12C > 100 µM | SK-MEL-5 > 100 µM | UACC-257 > 100 µM | MCF7 53.2 µM | HCT-116 > 100 µM

C[C@@H]([C@H]1CC[C@@]2(C)[C@@H]3CC[C@@H]4C(=CC3=CC[C@]12C)CC[C@H](N(C)C)C4(C)C)N(C)C [BUXAMINE A]
inactive: RPMI-8226 > 100 µM | SR > 100 µM | UACC-62 > 100 µM | CAKI-1 > 100 µM | DU-145 > 100 µM | NCI-H522 > 100 µM | NCI-H460 > 100 µM | RXF 393 > 100 µM | SF-539 > 100 µM | SNB-19 > 100 µM | MDA-MB-231 > 100 µM | NCI/ADR-RES > 100 µM | OVCAR-8 > 100 µM | IGROV-1 > 100 µM | SN12C > 100 µM | SK-MEL-5 > 100 µM | UACC-257 > 100 µM | MCF7 > 100 µM | HCT-116 > 100 µM
